# Assay results from patent publication US20220249447A1, “CF3-, OCF3-, SCF3-, and SF5-Containing Antibacterial Agents” (Purdue Research Foundation, priority 2019, published 2022).
# Read-outs that look alike come from different tables or passages of the source.
# Columns and labels:
# [1] = test system: Neisseria gonorrhea strain 181; test: MIC against Neisseria gonorrhea strain 181; assay type: cell-based
# Method: (§1) Bacteria were cultured in cation-adjusted Mueller Hinton Broth (for strains in Tables 1-3) or Brain Heart Infusion broth (for Enterococcus faecium) or Tryptic Soy Broth (all other bacteria) in a 96-well plate at 37° C. for at least 20 hours. The MIC was classified as the lowest concentration where no visual growth of bacteria was observed. The minimum bactericidal concentration (MBC) was tested by spotting 4 μL from wells with no growth onto Tryptic Soy Agar (TSA) plates. Plates were incubated at 37° C. for at least 18 hours before recording the MBC.
# [2] = test system: C. difficile NR-13432 (isolate 6); test: MIC against C. difficile NR-13432 (isolate 6); assay type: cell-based
# Method: as §1
# [3] = test system: C. difficile NR-32891 (P13); test: MIC against C. difficile NR-32891 (P13); assay type: cell-based
# Method: as §1
# [4] = test system: C. difficile NR-32904 (P30); test: MIC against C. difficile NR-32904 (P30); assay type: cell-based
# Method: as §1
# [5] = test system: C. difficile NR-32895 (P19); test: MIC against C. difficile NR-32895 (P19); assay type: cell-based
# Method: as §1
# [6] = test system: C. difficile NR-32883 (P2); test: MIC against C. difficile NR-32883 (P2); assay type: cell-based
# Method: as §1
# C. difficile ATCC 43255 = test: MIC against C. difficile ATCC 43255; assay type: cell-based
# Method: as §1
# [7] = test system: C. difficile NR-13435 (isolate 9); test: MIC against C. difficile NR-13435 (isolate 9); assay type: cell-based
# Method: as §1
# MRSA USA300 cells = test: Time-kill assay; assay type: cell-based; conditions: for Δlog2 CFU/mL: MRSA USA300, 3× MIC or 6× MIC, up to 24 hours
# Method: The time-kill analysis was performed as previously described^29. […] Aliquots (100 μL) were collected from each treatment after 0, 2, 4, 8, 12, and 24 hours of incubation at 37° C. and subsequently serially diluted in phosphate-buffered saline (PBS). Bacteria were then transferred to TSA plates and incubated at 37° C. for 18-20 hours before viable CFU/mL was determined (see FIG. 2).
# [8] = test system: C. difficile ATCC BAA 1801; test: MIC against C. difficile ATCC BAA 1801; assay type: cell-based
# Method: as §1
# S. aureus = test: MIC, broth microdilution, S. aureus; assay type: cell-based; conditions: Staphylococcus aureus
# Method: as §1
# MRSA ATCC 33592 = test: MIC, broth microdilution, MRSA ATCC 33592; assay type: cell-based, methicillin-resistant S. aureus; conditions: Staphylococcus aureus
# Method: All MRSA isolates were acquired from BEI Resources. The remaining bacteria were purchased from the American Type Culture Collection (ATCC).
# as §1
# [9] = Clostridioides difficile, BAA1801; read-out: MIC C. difficile ATCC BAA 1801
structure (smiles),measurement,setting,value
"CN(C)[C@@H]1C(O)=C(C(N)=O)C(=O)[C@@]2(O)C(O)=C3C(=O)c4c(O)cccc4[C@@](C)(O)[C@H]3C[C@@H]12 [Tetracycline, reference compound]",MIC,[1],2 mg/L
"CN[C@H](CC(C)C)C(=O)N[C@H]1C(=O)N[C@@H](CC(N)=O)C(=O)N[C@H]2C(=O)N[C@H]3C(=O)N[C@H](C(=O)N[C@H](C(=O)O)c4cc(O)cc(O)c4-c4cc3ccc4O)[C@H](O)c3ccc(c(Cl)c3)Oc3cc2cc(c3O[C@@H]2O[C@H](CO)[C@@H](O)[C@H](O)[C@H]2O[C@H]2C[C@](C)(N)[C@H](O)[C@H](C)O2)Oc2ccc(cc2Cl)[C@H]1O [Vancomycin, reference compound]",MIC,"[2]; Clostridioides difficile, read-out: MIC C. difficile NR-13432 (isolate 6)",0.25 mg/L
same,MIC,"[3]; Clostridioides difficile, read-out: MIC C. difficile NR-32891 (P13)",0.5 mg/L
same,MIC,"[4]; Clostridioides difficile, read-out: MIC C. difficile NR-32904 (P30)",1 mg/L
same,MIC,"[5]; Clostridioides difficile, read-out: MIC C. difficile NR-32895 (P19)",1 mg/L
same,MIC,"[6]; Clostridioides difficile, read-out: MIC C. difficile NR-32883 (P2)",0.5 mg/L
same,MIC,"C. difficile ATCC 43255; Clostridioides difficile, ATCC43255, read-out: MIC C. difficile ATCC 43255",1 mg/L
same,MIC,"[7]; Clostridioides difficile, read-out: MIC C. difficile NR-13435 (isolate 9)",1 mg/L
same,Bactericidal/Bacteriostatic,MRSA USA300 cells,Bactericidal
same,MIC,"[8]; Clostridioides difficile, BAA1801, read-out: MIC C. difficile ATCC BAA 1801",1 mg/L
O=C(Nc1nnc(-c2cccs2)o1)c1ccc(S(=O)(=O)C(F)(F)F)cc1 [HSGN-103],MIC C. difficile NR-13432 (isolate 6),[2],0.5 mg/L
same,MIC C. difficile NR-32891 (P13),[3],0.5 mg/L
same,MIC C. difficile NR-32904 (P30),[4],0.5 mg/L
same,MIC C. difficile NR-32895 (P19),[5],0.5 mg/L
same,MIC C. difficile NR-32883 (P2),[6],0.5 mg/L
same,MIC C. difficile ATCC 43255,C. difficile ATCC 43255,0.5 mg/L
same,MIC C. difficile NR-13435 (isolate 9),[7],0.5 mg/L
same,Bactericidal/Bacteriostatic,MRSA USA300 cells,Bacteriostatic
same,Δlog2 CFU/mL,MRSA USA300 cells,1.04
same,MIC C. difficile ATCC BAA 1801,[8],0.5 mg/L
"O=C(Nc1nnc(-c2cccc(Cl)c2)o1)c1ccc(S(F)(F)(F)(F)F)cc1 [HSGN-259, N-(5-(3-chlorophenyl)-1,3,4-oxadiazol-2-yl)-4-(pentafluoro-k6-sulfaneyl)benzamide]",MIC,S. aureus,0.0625 mg/L
same,MIC,MRSA ATCC 33592,0.0313 mg/L
same,MIC,[1],1 mg/L
same,MIC,[8]; [9],< 0.003 mg/L
"O=C(Nc1nnc(-c2ccc(Cl)cc2Cl)o1)c1ccc(SC(F)(F)F)cc1 [HSGN-248, N-(5-(2,4-dichlorophenyl)-1,3,4-oxadiazol-2-yl)-4-((trifluoromethyl)thio)benzamide]",MIC,S. aureus,0.5 mg/L
same,MIC,MRSA ATCC 33592,0.25 mg/L
same,MIC,[1],> 128 mg/L
same,MIC,[8]; [9],0.015 mg/L
"COc1c(Cl)cc(-c2nnc(NC(=O)c3ccc(SC(F)(F)F)cc3)o2)cc1Cl [HSGN-265, N-(5-(3,5-dichloro-4-methoxyphenyl)-1,3,4-oxadiazol-2-yl)-4-((trifluoromethyl)thio)benzamide]",MIC,S. aureus,0.0625 mg/L
same,MIC,MRSA ATCC 33592,0.0625 mg/L
same,MIC,[1],2 mg/L
"O=C(Nc1nnc(-c2ccc(F)cc2F)o1)c1ccc(SC(F)(F)F)cc1 [HSGN-219, N-(5-(2,4-difluorophenyl)-1,3,4-oxadiazol-2-yl)-4-((trifluoromethyl)thio)benzamide]",MIC,[2]; Clostridioides difficile; read-out: MIC C. difficile NR-13432 (isolate 6),0.03 mg/L
same,MIC,S. aureus,0.5 mg/L
same,MIC,[3]; Clostridioides difficile; read-out: MIC C. difficile NR-32891 (P13),0.125 mg/L
same,MIC,MRSA ATCC 33592,0.5 mg/L
same,MIC,[4]; Clostridioides difficile; read-out: MIC C. difficile NR-32904 (P30),0.06 mg/L
same,MIC,[5]; Clostridioides difficile; read-out: MIC C. difficile NR-32895 (P19),0.06 mg/L
same,MIC,[1],2 mg/L
same,MIC,[6]; Clostridioides difficile; read-out: MIC C. difficile NR-32883 (P2),0.003 mg/L
same,MIC,"C. difficile ATCC 43255; Clostridioides difficile, ATCC43255; read-out: MIC C. difficile ATCC 43255",0.06 mg/L
same,MIC,[7]; Clostridioides difficile; read-out: MIC C. difficile NR-13435 (isolate 9),0.007 mg/L
same,MIC,[8]; [9],0.015 mg/L
"CC(=O)NC[C@H]1CN(c2ccc(N3CCOCC3)c(F)c2)C(=O)O1 [Linezolid, reference compound]",Bactericidal/Bacteriostatic,MRSA USA300 cells,Bacteriostatic
same,Δlog2 CFU/mL,MRSA USA300 cells,1.7
